Data on four molecules can be found in US10028975B2, “Methods for treating ischemia-reperfusion injury” (Beth Israel Deaconess Medical Center, Inc., priority 2010, dated 2018).

In data set [1] the test system is Syk. Description: Syk expression by Western blot in T cells transfected with Syk siRNA. It counts as cell-based. As to conditions: T cells electroporated with siRNA at 0.5, 0.7, 0.9, 1.5 and 2 μM per million, approximately 72 hours. The protocol:
Different concentrations (0.5, 0.7, 0.9, 1.5, and 2 μM per million) of T cells were transfected by electroporation using Amexa Nucleofector solution. Briefly, a total of 5×10^6 T cells were re-suspended in 100 μl Nucleofector solution (Lonza Walkerrsville Inc.; Walkersville, Md.). The desired amount of Syk siRNA was mixed in with the T cell/nucleofector suspension and electrporated. The transfected cells were plated in RPMI-1640 medium without any antibiotic and incubated for approximately 72 hours. After proper incubation, transfected T cells were lysed in RIPA buffer, and Western blotting was performed with an antibody against total Syk (Clone 4D10; Santa Cruz Biotechnology, Inc.; Santa Cruz, Calif.).
On the technique in general: In western blotting, separated proteins are transferred to a membrane and probed.

The subject of data set [2] is C57BL/6J mice subjected to mesenteric I/R (intestine). Description: Intestinal mucosal injury scoring (H&E) after mesenteric ischemia-reperfusion. It counts as in vivo, mouse. The conditions noted are these: mean±SEM; for intestinal injury score (mucosal injury score): I/R mice, 30 min ischemia, 3 h reperfusion, scale 0-6. An excerpt:
(§1) Mice were randomly assigned to the following experimental groups: (a) mouse chow+sham procedures, (b) mouse chow+I/R procedures, (c) control chow+sham procedures, (d) control chow+I/R procedures, (e) R788 (3 g/kg)+sham procedures, (f) R788 (3 g/kg)+I/R procedures, and (g) R788 (5 g/kg)+I/R procedures […].
(§2) Syk inhibitor R788 was provided by Rigel Pharmaceuticals (South San Francisco, Calif.). Mice were fed food containing R788 (3 g/kg of chow, n=6 or 5 g/kg of chow, n=3), control chow (n=6), or regular chow (n=6). Food was prepared by Research Diets, Inc. (New Brunswick, N.J.). C57BL/6J mice were fed the R788-containing chow ad libitum for 6 days prior to experimentation in order to determine the effect of R788 on I/R injury.
Animals underwent I/R as had been described previously (Chiu et al., Arch Surg. 101: 478-483, 1970 and Fleming et al., J Immunol. 169: 2126-2133, 2002). Briefly, we performed a midline laparotomy before a 30-minute equilibration period. […] A small non-traumatic microvascular clip delivering approximately 85 grams of pressure was then applied for 30 minutes. The clip was removed after this ischemia phase, and the intestines were allowed to reperfuse for 3 hours. Sham-operated mice underwent the above-described surgical intervention without artery occlusion. The laparotomy incisions were sutured with 4.0 SOFSILK™, the mice resuscitated with 1.0 mL pre-warmed sterile phosphate-buffered saline (PBS) subcutaneously, and monitored during the reperfusion period. […]
For histological analysis, 20-cm segments of small intestine specimens were fixed in 10% buffered formalin phosphate immediately after euthanasia. […] To summarize, a normal villus was assigned a score of 0; villi with tip distortion were scored as 1; villi without goblet cells and with Guggenheims' spaces were scored as 2; villi with patchy disruption of the epithelial cells were scored as 3; villi with exposed but intact lamina propria and sloughing of epithelial cell were scored as 4; villi with exuding lamina propria were scored as 5; and villi with hemorrhage or denudation were scored as 6. […]

Data set [3] deals with T1, phosphorylated Syk (p-Syk) (Mus musculus, UniProt P48025).
T1 construct: formalin-fixed paraffin sections of intestine and lung were subjected to rehydration and antigen retrieval; from tissue; host or cells: intestine and lung of C57BL/6J mice
Description: p-Syk staining in intestine and lung by IHC and IF. It counts as in vivo. The conditions noted are these: I/R mice group, Syk inhibitor treatment, 3-hour reperfusion. From the text: (§3) In order to perform immunohistochemistry (IHC) staining, formalin-fixed paraffin sections of intestine and lung were subjected to rehydration and antigen retrieval using a standard protocol. For IHC studies, the following reagents were used: rabbit anti-mouse Syk (N-19) (Santa Cruz, Calif.), rabbit anti-mouse p-Syk (phospho Y323) (Abeam, Inc.), and rabbit anti-mouse C3 (B-9) (Santa Cruz, Calif.).
(§4) For immunofluorescence (IF) staining, formalin-fixed paraffin-embedded sections were blocked with 10% BSA-PBS at room temperature for 1 hour and incubated with FITC-labeled primary or secondary antibodies at room temperature for 1 hour. The slides were washed, and coverslips were mounted with Dako Fluorescent mounting medium and analyzed by confocal microscopy (Nikon Eclipse Ti, Nikon Instruments, Melville, N.Y.). FITC-labeled goat anti-mouse IgG (Santa Cruz, Calif., sc2010), FITC-labeled rat anti-mouse C3 (11H9) (Santa Cruz, Calif., sc-58926), FITC-labeled goat anti-mouse IgM (Southern Biotech, 1021-02), and FITC-labeled rat anti-mouse Ly-6G and LY-6C (Clone R6B-8C5) (BD Pharmingen) were the antibodies used in these studies.
Because the Syk inhibitor suppresses the expression of phosphorylated Syk (p-Syk), the active form of Syk, we performed p-Syk staining by using IHC and IF. We observed staining in I/R group mice. […] After a 3-hour reperfusion, we detected only slight p-Syk staining.

Data set [4] relates to complement component 3 protein (C3) deposition. Description: C3 deposition in intestine and lung by IHC and IF. In kind it is in vivo, mouse. As to conditions: I/R mice treated with Syk inhibitor.
From the text: as §3, §4
It has been reported that I/R activates the complement system, as indicated by C3 deposition on the intestine (Williams et al., supra). […]

The test system of data set [5] is C57BL/6J mice subjected to mesenteric I/R (lung). Description: Remote lung injury scoring (H&E) after mesenteric ischemia-reperfusion. It counts as in vivo, mouse. As to conditions: mean±SEM; for total lung injury score: I/R mice, 3 h reperfusion, scale 0-18.
From the text: as §1, §2
Animals underwent I/R as had been described previously (Chiu et al., Arch Surg. 101: 478-483, 1970 and Fleming et al., J Immunol. 169: 2126-2133, 2002). Briefly, we performed a midline laparotomy before a 30-minute equilibration period. […] The laparotomy incisions were sutured with 4.0 SOFSILK™, the mice resuscitated with 1.0 mL pre-warmed sterile phosphate-buffered saline (PBS) subcutaneously, and monitored during the reperfusion period. […]
Alveolar and periluminal injury scores in each lung section were calculated based on Cooke's method (Cooke et al., Blood 8: 3230-3239, 1996). For each lung section, we examined 10-20 fields at high power field magnification (400×) and scored for alveolar infiltration on a 3-tiered scale. The calculation of alveolar scores was as follows: when no infiltrate was present, a score of 0 was given; when the infiltrate could be visualized easily only at 400×, a score of 1 was assigned; when infiltrates were readily visible, a score of 2 was assigned; and the score for consolidation was 3. Similarly, each section was scored for periluminal damage (airway or blood vessel) at 100×. […] Based on the overall involvement of the section, a severity score was calculated: the severity score for 0-25% involvement was 1; a severity score of 2 was assigned for 25-50% involvement; and the severity score for >50% involvement was 3. […]

Another data set has as its system neutrophil infiltration. Description: Neutrophil infiltration (GR-1 staining) in intestine and lung. It counts as in vivo, mouse. The procedure: as §4
Therefore, we evaluated the presence of neutrophils in the intestine and lung after sham and I/R procedures in mice treated with Syk inhibitor. Mice subjected to I/R had more prominent GR-1 staining within the intestinal tissue after 3-hour reperfusion when compared to the sham-operated mice group.

The target of data set [6] is T2, Syk (Mus musculus, UniProt P48025).
T2 construct: formalin-fixed paraffin sections of intestine and lung were subjected to rehydration and antigen retrieval; from tissue; host or cells: intestine and lung of C57BL/6J mice
Description: Syk staining in intestine and lung by immunohistochemistry. It counts as in vivo. As to conditions: pre-treatment with Syk inhibitor, IHC. The procedure: as §3
Syk expression in the intestine and lung were evaluated by IHC. Syk staining in intestines and lungs were more prominent in I/R groups than in sham-operated groups.

A further data set relates to IgM deposition. Nature of the data set: IgM staining in intestine and lung by immunofluorescence. In kind it is in vivo, mouse. The conditions noted are these: I/R intestinal and lung samples, both tissues. The protocol: as §4
Reperfusion after ischemia induced alteration of the endothelial membrane and allows neoantigen expression. Circulating natural IgM antibodies bind to these antigens and may trigger complement-mediated injury (Williams et al., J Applied Physiol. 86: 938-942, 1999). Therefore, we performed IgM staining by IF, as described above. There was increased IgM staining in I/R intestinal and lung samples when compared to the sham tissues. […] Unlike the differences detected for natural IgM staining, we were only able to detect minimal IgG staining in all groups (data not shown).

The mark [7] stands for this setting: sham-operated mice, Syk inhibitor (R788 3 g/kg chow).

T2 sequence (P48025 whole entry): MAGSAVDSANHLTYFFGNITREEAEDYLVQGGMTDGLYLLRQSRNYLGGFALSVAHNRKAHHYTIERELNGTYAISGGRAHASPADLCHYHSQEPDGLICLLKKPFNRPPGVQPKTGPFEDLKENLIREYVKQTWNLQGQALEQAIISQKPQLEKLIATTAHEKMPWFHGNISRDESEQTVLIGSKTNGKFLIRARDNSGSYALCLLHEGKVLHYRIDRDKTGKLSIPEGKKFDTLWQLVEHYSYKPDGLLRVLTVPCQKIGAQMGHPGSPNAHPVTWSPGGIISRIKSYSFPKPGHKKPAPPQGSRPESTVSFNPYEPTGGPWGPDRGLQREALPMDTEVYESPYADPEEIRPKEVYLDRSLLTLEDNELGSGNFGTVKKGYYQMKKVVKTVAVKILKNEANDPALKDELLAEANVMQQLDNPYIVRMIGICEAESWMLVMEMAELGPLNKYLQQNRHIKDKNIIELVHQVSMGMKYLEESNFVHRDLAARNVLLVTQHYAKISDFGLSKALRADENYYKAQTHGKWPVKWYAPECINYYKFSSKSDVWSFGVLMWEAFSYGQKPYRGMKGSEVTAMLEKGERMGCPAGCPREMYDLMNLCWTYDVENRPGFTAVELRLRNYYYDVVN
T1 sequence (P48025 whole entry): as above

On to “SEQ ID NOs: 5 and 6: Syk-specific siRNA pair: sense GCACUAUCGCAUCGACAAAtt, antisense UUUGUCGAUGCGAUAGUGCag (sense GCACUAUCGCAUCGACAAATT; antisense UUUGUCGAUGCGAUAGUGCAG; chemistry not given here)”, for which the “Syk expression (Western blot)” value in the data set with Syk [1] is recorded as “can be inhibited”.

Regarding `COc1cc(Nc2ncc(F)c(Nc3ccc4c(n3)N(COP(=O)(O)O)C(=O)C(C)(C)O4)n2)cc(OC)c1OC` [R788], the results for the “intestinal injury score (mucosal injury score)” value in data set [2] (3 g/kg R788 in chow for 6 days) and in data set [2] (5 g/kg R788 in chow for 6 days) were 0.58±0.08 and 0.92±0.14, respectively. The intestinal injury score in data set [2] (setting [7]) is 0.42±+0.33. In addition, the “p-Syk staining in the lung and intestine” value in data set [3] was “eliminated p-Syk staining”. Also, the “C3 staining in the intestinal mucosa” value in data set [4] (intestine) is “attenuated C3 staining”. Besides, the “C3 deposition in the lungs” value in data set [4] (lung) is “limited C3 deposition”. In addition, the entries for the “total lung injury score” value in data set [5] (3 g/kg R788 in chow for 6 days) and in data set [5] (5 g/kg R788 in chow for 6 days) were 1.36±0.18 and 1.1±0.46, respectively. Further, the “average pulmonary damage score” value in data set [5] (setting [7]) was 1.03±0.26. The “I/R-induced neutrophil infiltration (GR-1 staining)” value with neutrophil infiltration (intestinal tissue, 3-hour reperfusion) is listed as “prevented I/R-induced neutrophil infiltration”. The “neutrophil infiltration in the lung tissues” value in the data set on neutrophil infiltration (lung tissue, I/R mice) is on record as “decreased infiltration”. In addition, at Syk [6], the “Syk staining in either the intestine or the lung” value is recorded as “did not cause any changes”. Also, the “IgM deposition (immunofluorescence staining)” value with IgM deposition is recorded as “reduced IgM deposition”.

Turning to “SEQ ID NOs: 3 and 4: Syk-specific siRNA pair: sense CGCUCUUAAAGAUGAGUUAtt, antisense UAACUCAUCUUUAAGAGCGgg (sense CGCUCUUAAAGAUGAGUUATT; antisense UAACUCAUCUUUAAGAGCGGG; chemistry not given here)”, the “Syk expression (Western blot)” value in the data set on Syk [1] is recorded as “can be inhibited”.

In the case of “SEQ ID NOs: 1 and 2: Syk-specific siRNA pair: sense GGAUAAGAACAUCAUAGAAtt, antisense UUCUAUGAUGUUCUUAUCCtt (sense GGAUAAGAACAUCAUAGAATT; antisense UUCUAUGAUGUUCUUAUCCTT; chemistry not given here)”, the “Syk expression (Western blot)” value with Syk [1] is “can be inhibited”.
